Among the test systems are 786-0 renal; BT-549 breast; CAKI-1 renal; HCC-2998 colon; HT29 colon; M14 melanoma; MDA-MB-231 breast; NCI-H23 lung; NCI-H460 lung; OVCAR-3 ovarian; OVCAR-4 ovarian; PC-3 prostate; RXF 393 renal; SF-539 CNS; SK-MEL-28 melanoma; SK-OV-3 ovarian; SN12C renal; T-47D breast; UACC-257 melanoma; UACC-62 melanoma.
Holding throughout (assay): NCI tumour cell line growth inhibition, 48 h

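Cultured in 96-well plates, cells were exposed to test compound for 48 hours across five concentrations. TGI is the concentration that stops growth completely.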

In the case of `CC(=O)c1c(O)n(-c2ccc(C)cc2)c(=O)c2c(N)n[nH]c12`, the TGI in the assay on 786-0 renal, in the assay on BT-549 breast, in the assay on CAKI-1 renal, in the assay with HCC-2998 colon, in the assay on HT29 colon and with M14 melanoma was > 100 µM each time. Also, the TGI with MDA-MB-231 breast, with NCI-H23 lung, in the assay with NCI-H460 lung, with OVCAR-3 ovarian, in the assay on OVCAR-4 ovarian and with PC-3 prostate was > 100 µM in each case. Besides, the TGI in the assay with RXF 393 renal, in the assay with SF-539 CNS, with SK-MEL-28 melanoma, in the assay with SK-OV-3 ovarian, in the assay with SN12C renal and with T-47D breast was > 100 µM in each case. For the same molecule, the TGI in the assay with UACC-257 melanoma and in the assay on UACC-62 melanoma was > 100 µM each time.

As to `O=P1(Cc2ccccc2)c2ccccc2-c2ccccc21`, the TGI in the assay on 786-0 renal was > 100 µM; in the assay with BT-549 breast, 21.3 µM; in the assay with CAKI-1 renal, 50.4 µM; in the assay on HCC-2998 colon it was 16.7 µM; in the assay with HT29 colon, 27.1 µM; with M14 melanoma it was 20.2 µM. The TGI in the assay with MDA-MB-231 breast was > 79.4 µM; in the assay with NCI-H23 lung, 22.1 µM; in the assay with NCI-H460 lung, 48.3 µM; in the assay on OVCAR-3 ovarian it was > 55.4 µM; in the assay on OVCAR-4 ovarian, 87.9 µM; in the assay on PC-3 prostate it was > 100 µM. The TGI in the assay with RXF 393 renal was 28.9 µM; in the assay with SF-539 CNS, 39.5 µM; in the assay with SK-MEL-28 melanoma, 24.6 µM; in the assay on SK-OV-3 ovarian, > 100 µM; in the assay on SN12C renal, > 78.8 µM; in the assay with T-47D breast, 6 µM. For the same molecule, the TGI in the assay on UACC-257 melanoma was 16 µM; in the assay with UACC-62 melanoma it was 13.7 µM.

As to `CC(C)=C[C@@H]1O[C@H](O)[C@@H]([C@H]2CC[C@@]3(C)[C@@H]4CC[C@H]5C(C)(C)C(=O)CC[C@@]56C[C@@]46CC[C@]23C)[C@@H]1O`, the TGI in the assay on 786-0 renal worked out at 27.6 µM; in the assay with BT-549 breast it was 39.8 µM; in the assay with CAKI-1 renal it was 31 µM; in the assay on HCC-2998 colon, 33.3 µM; in the assay with HT29 colon, 24.1 µM; in the assay on M14 melanoma, 57.3 µM. Also, the TGI in the assay with MDA-MB-231 breast stood at 37.1 µM; with NCI-H23 lung it was 32.9 µM; in the assay with NCI-H460 lung it was 35.9 µM; with OVCAR-3 ovarian it was 27.3 µM; in the assay with OVCAR-4 ovarian it was 35 µM; with PC-3 prostate, 29.3 µM. The TGI in the assay on RXF 393 renal stood at 27.8 µM; with SF-539 CNS it was 28 µM; in the assay with SK-MEL-28 melanoma, 42.5 µM; in the assay with SK-OV-3 ovarian, 34.6 µM; in the assay on SN12C renal, 38.2 µM; in the assay with T-47D breast, 35.5 µM. Also, the TGI with UACC-257 melanoma stood at 31.6 µM; in the assay on UACC-62 melanoma it was 35.5 µM.

(Values after PubChem BioAssay (NCI).)
